This is an account of results in US10197581B2, “Vitamin D assays” (Enzo Life Sciences, Inc., priority 2013, dated 2019).

Structures are written as SMILES.

The target of series [1] is T1, vitamin D binding protein (DBP) (Homo sapiens, UniProt P02774).
T1 sequence (P02774 17-474): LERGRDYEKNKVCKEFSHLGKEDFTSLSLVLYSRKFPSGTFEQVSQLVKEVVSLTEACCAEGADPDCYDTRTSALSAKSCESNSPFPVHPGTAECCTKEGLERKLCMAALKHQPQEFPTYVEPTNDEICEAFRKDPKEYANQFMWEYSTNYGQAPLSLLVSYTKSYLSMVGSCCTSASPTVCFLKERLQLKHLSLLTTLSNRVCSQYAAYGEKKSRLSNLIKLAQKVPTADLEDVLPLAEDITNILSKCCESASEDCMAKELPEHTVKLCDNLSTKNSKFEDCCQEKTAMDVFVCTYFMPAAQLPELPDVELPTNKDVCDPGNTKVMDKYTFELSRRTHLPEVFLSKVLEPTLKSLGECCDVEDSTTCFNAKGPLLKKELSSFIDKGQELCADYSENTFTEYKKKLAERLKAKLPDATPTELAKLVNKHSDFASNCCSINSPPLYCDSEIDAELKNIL
In words: Release of bound 25OHD3 from DBP in serum samples at varied release reagent concentrations (ELISA). In kind it is biochemical. The arrangement: human serum containing 20 or 40 ng/mL 25OHD3 were treated with the various dissociation buffers; from tissue; host or cells: human serum. Particulars: major release reagents in combination. (An ELISA detects its analyte on a solid surface through an enzyme-linked reagent.)

Series [2] concerns the target T1, vitamin D binding protein (DBP). In words: Screening of dissociation buffer components (release reagents) in the 25OHD ELISA. The conditions noted are these: component of dissociation buffer. In kind it is biochemical. On the procedure: In order to optimize the ELISA 25OHD assay, components of the dissociation buffer, the assay buffer and the wash buffer, and conditions for performing various steps in the protocol were tested in the assay. Various reagents were tested alone or in combination for their effects on dissociation of 25OHD from DBP.
In addition, various types and concentrations of buffer salts (e.g., Tris, MES, citrate) were used in the dissociation buffers, assay buffers and wash buffers. Dissociation and wash buffers having a pH from 4-8 were tested. Dissocation was performed at different temperatures (RT, 37° C., 65° C.) and in different incubation vessels (polypropylene or polystyrene) and the competitive ELISA was performed using various different 25OHD conjugates.

For series [3] the target is unchanged. Nature of the series: Release of bound 25OHD3 from DBP in serum samples at varied release reagent concentrations (ELISA). The class given is biochemical. Set-up: from tissue; host or cells: human serum. The conditions noted are these: for percent inhibition by released 25OHD: vs controls with no 25OHD. On the procedure:
Each buffer was diluted to provide dissociation buffers with multiple concentrations of a single release reagent.

Series [4] is classed as physicochemical.

In the case of `CCCC[n+]1ccc(C)cc1.[Cl-]`, the “optimal concentration for dissociation buffer formulation” value in series [1] was “about 10%”. In addition, the “release of 25OHD from DBP and maintaining 25OHD availability for antibody binding” value in series [2] is “effective and generally compatible with the assay”. The “percent inhibition by released 25OHD” value in series [3] (20 ng/mL 25OHD3 serum sample, high end of 6-14% reagent range) is 25%; in series [3] (20 ng/mL 25OHD3 serum sample, low end of 6-14% reagent range), 12%; in series [3] (40 ng/mL 25OHD3 serum sample, high end of 6-14% reagent range) it was 34%; in series [3] (40 ng/mL 25OHD3 serum sample, low end of 6-14% reagent range) it was 16%. Further, the “best percentage of individual release reagent (greatest gains in 25OHD release)” value in series [3] (single release reagent in dissociation buffer) was 14%. Besides, the “stability of dissociation buffer” value in series [4] is “stable and could be stored at room temperature for weeks with no change in efficacy in the assay”.
